Laboratory results published in PubChem BioAssay (NCI).
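How tested: cells in 96-well plates exposed to compound for 48 hours at five concentrations. The concentration for 50% growth inhibition is given as GI50. Definition used: TGI = concentration required for complete inhibition of growth.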

Tests used:
Test in all cases: inhibition of tumour cell growth, NCI panel, 48 h
A549 NSCLC = system: A549 NSCLC
MCF7 breast = system: MCF7 breast
CCRF-CEM leukemia = system: CCRF-CEM leukemia
MDA-N = system: MDA-N
NCI-H460 lung = system: NCI-H460 lung
HOP-62 NSCLC = system: HOP-62 NSCLC
M14 melanoma = system: M14 melanoma
MALME-3M melanoma = system: MALME-3M melanoma
NCI-H522 lung = system: NCI-H522 lung
HS 578T breast = system: HS 578T breast

| SMILES | TGI (A549 NSCLC) | TGI (MCF7 breast) | TGI (CCRF-CEM leukemia) | TGI (MDA-N) | TGI (NCI-H460 lung) | TGI (HOP-62 NSCLC) | TGI (M14 melanoma) | TGI (MALME-3M melanoma) | TGI (NCI-H522 lung) | TGI (HS 578T breast) | GI50 (A549 NSCLC) | GI50 (CCRF-CEM leukemia) | GI50 (NCI-H522 lung) | GI50 (HOP-62 NSCLC) | GI50 (HS 578T breast) |
| --- | --- | --- | --- | --- | --- | --- | --- | --- | --- | --- | --- | --- | --- | --- | --- |
| CCOP(=O)(/C=C\n1cnc2c(=O)n(C(C)=O)c(N)nc21)OCC | > 100 µM | > 100 µM | > 100 µM | > 100 µM | > 100 µM | > 100 µM | > 100 µM |  |  |  |  |  |  |  |  |
| CC(=O)c1ccc(Oc2ccc(/C(C)=N\N=C(N)N)cc2)cc1 | 14.5 µM |  | 10.4 µM |  | 10.5 µM | 9.72 µM | 4.76 µM | 8.12 µM | 4.04 µM |  |  |  |  |  |  |
| CC1(O)CC2C(CC1SCCO)C2(C)C (configuration not stated) | > 100 µM |  | > 100 µM |  | > 100 µM |  | > 100 µM | > 100 µM |  |  |  |  |  |  |  |
| CCSC1=N/C(=C\c2ccccc2O)C(Nc2ccc(C)cc2)=N1 | > 100 µM |  | > 100 µM |  | > 100 µM | > 100 µM | > 100 µM | > 100 µM | 94.4 µM | > 100 µM |  |  |  |  |  |
| O=C(O)CSc1cc(-c2ccccc2)nc2ccccc12 | > 100 µM |  |  | > 100 µM | > 100 µM | > 100 µM | > 100 µM | > 100 µM | 70.9 µM | 61.4 µM |  |  |  |  |  |
| CC(=O)O[C@H]1CC[C@]2(C)[C@H]3CC[C@@H]4[C@H]5[C@H](C(C)C)CC[C@]5(C(=O)OCC(CO)(CO)N=C(N)N)CC[C@@]4(C)[C@]3(C)CC[C@H]2C1(C)C | 3.28 µM |  | 5.51 µM |  |  | 3.56 µM |  |  | 3.16 µM | 5.04 µM | 1.71 µM | 2.24 µM | 1.6 µM | 1.82 µM | 2.05 µM |
| COC(=O)C1=Nc2c(C)nn(-c3ccccc3)c2N=C(c2ccc(C)cc2)C1 | > 10 µM | > 10 µM |  | > 10 µM |  | > 10 µM | > 10 µM | > 10 µM | > 10 µM | > 10 µM |  |  |  |  |  |
| O=C1c2cc3ccccc3cc2C2(c3ccc(Cl)cc3)N[C@H]3CCCC[C@@H]3N12 (some centres not stated) | 36.3 µM | 84.9 µM | > 100 µM | 57.8 µM | 47.3 µM | 20.3 µM | 8.65 µM | 36.8 µM |  | 27.9 µM |  |  |  |  |  |
| O=C1CCCc2c1c1c(n2Cc2ccccc2)-c2ccccc2C1=O | 88.2 µM | > 100 µM | > 100 µM |  | > 100 µM | 50.2 µM | 46.4 µM | 38.1 µM | 33.8 µM | 77.3 µM |  |  |  |  |  |
| COc1cccc2cc(C(N)=O)c(=N)oc12 | > 100 µM |  | > 100 µM | > 100 µM | > 100 µM |  | > 100 µM | 45.9 µM |  | 97.5 µM |  |  |  |  |  |
| C=C1c2c(cc3c(c2O)c(=O)c2ccccc2n3C)OC1(C)C |  |  | > 100 µM |  | > 100 µM |  | > 100 µM | > 100 µM | 9.49 µM |  |  |  |  |  |  |
| O=C1c2ccccc2-c2nc(-c3cccnc3)cc3c2c1nc1ccccc13 | > 100 µM | > 100 µM | > 100 µM |  | > 100 µM | > 100 µM | > 100 µM | > 100 µM | > 100 µM | > 100 µM |  |  |  |  |  |
| O=C(NO)c1coc2ccccc2c1=O | > 100 µM |  | > 100 µM |  |  |  | > 100 µM | > 100 µM | > 100 µM |  |  |  |  |  |  |
